Assays:
Format in all cases: in vivo, C57BL/6 male mice
[1] = Oral glucose tolerance test (OGTT) on day 113; details: HFD-fed obese mice, 150 mg/kg/day oral, day 113, glucose 2 g/kg oral; relative to same HFD, with or without exercise, without L-BAIBA; FIGS. 6A-7
Method: (§1) 36 C57BL/6 male mice aged about 8 weeks, each having a body mass of approximately 21 g, were randomly assigned to six study groups (GA1, GA2, GB1, GB2, GB3, and GB4) of six mice each. Each animal's body weight is measured by a weight scale and recorded.
(§2) The total experimental time is 16 weeks, divided into two periods: an eight-week induction period and an eight-week treatment period. […]
(§3) Throughout the study described in Example 1, glucose levels in each mouse's blood were measured weekly (week 9-16) on the starting day of every week, before the day's exercise and L-BAIBA dosing activities. […] Blood glucose levels were monitored pre-dose and at 15, 30, 60 and 120 minutes after administration of the glucose solution. […] The area under the curve (AUC) was calculated and expressed as percentage values.

[2] = Blood metabolism-related biomarkers (TG, TCHO, LDL, VLDL) at end of study; details: HFD-fed obese mice, 150 mg/kg/day oral, relative to same HFD, with or without exercise, without L-BAIBA
Method: as §1
(§4) The total experimental time is 16 weeks, divided into two periods: an eight-week induction period and an eight-week treatment period.
(§5) Each study group consisted of 6 animals, and treatment details of the individual study groups are given below: • Group A1 (GA1): Normal mice, maintained on a normal diet (ND) for 8 weeks, receiving neither exercise nor L-BAIBA treatment. • Group A2 (GA2): Normal mice, maintained on a normal diet (ND) for 8 weeks, receiving only L-BAIBA treatment and no exercise. • Group B1 (GB1): Obese mice, maintained on a high-fat diet (HFD) for 8 weeks, receiving neither exercise nor L-BAIBA treatment. • Group B2 (GB2): Obese mice, maintained on HFD for 8 weeks, receiving only exercise and no L-BAIBA treatment. • Group B3 (GB3): Obese mice, maintained on HFD for 8 weeks, receiving only L-BAIBA treatment and no exercise. • Group B4 (GB4): Obese mice, maintained on HFD for 8 weeks, receiving both L-BAIBA treatment and exercise.
Animals receiving L-BAIBA received, via oral administration, 150 mg/kg body weight of L-BAIBA, dissolved in 10 mL/kg body weight of ultrapure water, per day. Animals not receiving L-BAIBA were administered 10 mL/kg body weight of ultrapure water per day. All animals were maintained in a pathogen-free condition under a strict 12-hour alternate light/dark cycle with 12-15 cycles/hour of air exchange. All animals were provided with access to their respective feeds and water ad libitum. All animals were housed under controlled laboratory conditions of temperature and humidity at 23±2° C. and 50±10% RH.
At the end of the study described in Example 1, blood was collected from all test groups and various clinical parameters/biomarkers related to metabolism were determined: triglyceride (TG), total cholesterol (TCHO), low-density lipoprotein (LDL) and very low-density lipoprotein (VLDL).

[3] = Muscular (soleus) and hepatic glycogen content at end of study; details: HFD-fed obese mice, 150 mg/kg/day oral, relative to same HFD, with or without exercise, without L-BAIBA
Method: as §1, §4, §5
Animals receiving L-BAIBA received, via oral administration, 150 mg/kg body weight of L-BAIBA, dissolved in 10 mL/kg body weight of ultrapure water, per day. […]

[4] = Weekly blood glucose level (tail vein, glucometer)
Method: as §1, §2, §3

[5] = Serum insulin and leptin by ELISA (insulin and leptin resistance); details: HFD-fed obese mice, 150 mg/kg/day oral, end of study, relative to same HFD, with or without exercise, without L-BAIBA
Method: as §1, §4
as §5, with “and exercise. […]” for “and exercise.”
At the end of the study described in Example 1, serum levels of insulin and leptin were quantified in all treatment groups by standard ELISA methods. […]

[6] = Body weight of high-fat diet obese mice, measured weekly; details: 150 mg/kg/day oral
Method: as §1, §4
as §5, with “and exercise. […]” for “and exercise.”
Throughout the study period, each mouse's body weight was measured weekly by a calibrated electronic digital weighing balance Sartorious BSA32025 (Sartorious AG, Göttingen, Germany). […]

With `C[C@@H](CN)C(=O)O` [L-BAIBA, L-β-aminoisobutyric acid] the “glucose tolerance (OGTT)” value [1] was “better glucose tolerance”, the “blood triglyceride (TG)” value ([2]; FIG. 2A) was “lower levels” and the “blood total cholesterol (TCHO)” value ([2]; FIG. 2B) was “lower levels”. For the same compound, the “blood low-density lipoprotein (LDL)” value ([2]; FIG. 2C) was “lower levels”, the “blood very low-density lipoprotein (VLDL)” value ([2]; FIG. 2D) was “lower levels” and the hepatic glycogen content ([3]; liver main lobe, FIG. 3A) was “higher”. The muscular glycogen content ([3]; soleus muscle, FIG. 3B) was “higher”, the “blood glucose level of obese mice over the experimental period” value ([4]; HFD obese mice, 150 mg/kg/day oral, weeks 9-16, compared with normal mice (GA1)) was “stable level, close to the level of normal mice (GA1)” and the blood glucose level ([4]; mice receiving 150 mg/kg/day oral, weekly weeks 9-16, GB3 and GB4 relative to GB1 and GB2, FIGS. 5A, 5B) was “greater reduction in blood glucose level”. The “insulin resistance (serum insulin)” value ([5]; FIG. 4A) was “improved”, the “leptin resistance (serum leptin)” value ([5]; FIG. 4B) was “improved leptin resistance” and the “body weight, GB3 relative to GB1 and GB2” value ([6]; HFD obese mice, L-BAIBA only, no exercise (GB3), vs untreated (GB1) and exercise only (GB2), FIG. 1) was “reduced body weight”. The body weight ([6]; HFD-fed obese mice, 8-week treatment, with or without exercise, relative to same HFD without L-BAIBA) was “greater reduction in body weight”.

From US11766416B2, “Compositions of β-aminoisobutyric acid and methods for use thereof” (Nanjing Nutrabuilding Bio-tech Co., Ltd., priority 2020, dated 2023)
